{"source": "patent US6348205B1", "about": "“Use of carbonic acid for stabilizing or increasing the epidermal ceramide synthesis rate” (Beiersdorf AG, priority 1997, dated 2002)", "key": {"irritated skin": {"system": "irritated skin", "settings": "2 weeks, 1 min rinse once a day, washing with shampoo solution twice a day; backs of hands", "description": "(§1) For the standardized washing, a normal commercially available shampoo which, according to the manufacturer, contains […] active cleansing substances was diluted with distilled water until it contained 10% active cleansing substances in the solution ready for use.\n(§2) Tap water was used for the part-affusions with pure water.\n(§3) The carbonated water employed was mechanically produced using an impregnation device in which tap water was supplemented with carbon dioxide under elevated pressure.\n(§4) All the part-affusions take place at a temperature of 37° C.\n(§5) The test was carried out as unilateral test on 20 test subjects (13 women and 7 men between 23 and 28 years of age). The volunteer test subjects were not subjected to any selection conditions apart from right-handedness. For random distribution, one half of the participants was treated with carbonic acid on the right hand and the other half was treated on the left hand.\n(§6) Over a period of 2 weeks, the back of one hand of the test subjects was rinsed with carbonic acid for 1 min once a day. The other was rinsed with pure water as control. At the same time, the backs of both hands were repeatedly irritated by a standardized washing with the shampoo solution twice a day.\n(§7) The effect of carbonic acid or pure water on the dermatophysiological parameters of irritated skin was measured using noninvasive dermatophysiological investigation methods.\n(§8) The transepidermal water loss (TEWL) as a measure of the permeability barrier function was measured using the evaporimetry method. An EP1 evaporimeter (Servomed & Co., Hasselby, Stockholm, Sweden) was used. The relative skin hydration (RSH) was measured using the capacitance measurement method. A CM 820 PC corneometer (Courage & Khazaka Electronic GmbH, Cologne, Germany) was used. The measurements have been reported as mean of 2 recordings (evaporimetry) or 3 recordings (corneometry).\n(§9) All the tests took place in the partially air-conditioned dermatophysiology laboratory at Osnabrück University."}, "[1]": {"system": "irritated skin (epidermal permeability barrier)", "description": "as §1, §2, §3, §4, §5, §6, §7, §8, §9"}, "[2]": {"system": "epidermal ceramide synthesis", "settings": "SLS-irritated forearm; for values for the ceramide fraction (peak areas) versus test area treated with pure water: 1 min rinse daily, WILCOXON paired differences test", "method": "On the first investigation date, test plasters with 60 μl of 1% strength sodium lauryl sulfate (conventional synthetic surfactant frequently used in dermatological irritability research) were stuck onto in each case 3 test sites on the right and left forearm, and the epidermal lipids (baseline values before irritation) were obtained in vivo on the 4th test site on the right and left forearm. After 24 h, the test plasters were removed and all the previously irritated test sites were again irritated with sodium lauryl sulfate with occlusion for 24 h.\nThe intention of the cumulative irritation with sodium lauryl sulfate for 2×24 h on two consecutive days was initially to induce disturbance of the epidermal barrier, including damage to the epidermal lipid lamellae.\nOn the first investigation day after the irritation (Monday), the rinsing was preceded by in vivo delipidation in each case of one irritated test site on the forearm to be treated with carbonic acid and that to be treated with pure water.\nPure water was used on the comparison side for reasons of standardization. […] Use of pure water on the comparison side thus makes it possible to state that the effects which are found are attributable exclusively to the carbonic acid.\nThe eluate of solvent and epidermal lipids obtained in vivo was initially evaporated under nitrogen, and the epidermal lipids were then frozen. In this way, the samples for chromatography were initially collected from all the subjects during the investigations.\nFor the investigations by thin-layer chromatography, the 8 samples from each subject were thawed and, using different concentrations of the standard mixture, developed and detected on a thin-layer plate.\nDetermination of the lipid pattern before irritation, immediately after irritation and after use for one week and two weeks of carbonic acid or pure water makes it possible to make detailed statements about the regeneration of the epidermal barrier and any effects of the use of carbonic acid on individual lipid fractions of the epidermal barrier lipids. […]"}}, "note": "Where two headings read alike, the source gives them in different places.", "data": [{"smiles": "O=C(O)O", "note": "[carbonic acid]", "values": [{"measurement": "baseline values of the RSH and RSH 30 min after use versus pure water", "setting": "irritated skin", "result": "higher (in some cases significantly higher)"}, {"measurement": "increase in TEWL (comparison of medians) versus pure water", "setting": "[1]; 2 weeks, 1 min rinse once a day, washing with shampoo solution twice a day, backs of hands", "result": "smaller increase in the TEWL"}, {"measurement": "TEWL 30 min after use versus test regions treated with pure water", "setting": "[1]; 30 min after use, all days with the exception of the first day, P<0.05", "result": "significantly lower"}, {"measurement": "TEWL values versus test area treated with pure water", "setting": "[1]; on days 3, 6, 7 and 8, values before daily use, WILCOXON paired differences test, P<0.05", "result": "significantly lower"}, {"measurement": "values for the ceramide fraction (peak areas) after the treatments versus baseline values", "setting": "[2]; after treatment for one and two weeks", "result": "significantly higher than the baseline values"}, {"measurement": "values for the ceramide fraction (peak areas) versus test area treated with pure water", "setting": "[2]; after treatment for one week", "result": "higher, nearly significantly so (p<0.05)"}, {"measurement": "values for the ceramide fraction (peak areas) versus test area treated with pure water", "setting": "[2]; after treatment for two weeks", "result": "significantly so (p<0.01)"}]}]}
